Results published in patent US10160772B2, “5,6-dihydro-4H-benzo[b]thieno-[2,3-d]azepine derivatives” (PULMOCIDE LIMITED, priority 2014, dated 2018).
Read-outs that look alike come from different tables or passages of the source.

What was measured:
Format in all cases: cell-based
[1] = Cell viability: resazurin assay in Hep2 cells; details: human, 5 days incubation
Protocol: Cell Viability: Resazurin Assay Hep2 cells were seeded in 384-well plates (10^3/well/50 μL; BD Falcon Ref 353962) in FBS DMEM (5%, containing 2 mM L-glutamine and 1 mM sodium pyruvate) one day before experimentation. Serum-free DMEM (50 μL) was added to test wells while for control wells the media was removed and sterile water (100 μL) was added. Test compounds (0.5 μL DMSO solution) were added to give a final DMSO concentration of 0.5%. Hep2 cells were incubated with each test compound for 5 days (37° C./5% CO2 in 5% FBS) and then resazurin stock solution (5 μL; 0.03%) was added to each well and the plate incubated further for a further 6 hrs (37° C./5% CO2). The fluorescence of each well at 545 nm (excitation) and 590 nm (emission) was determined using a multi-scanner (Clariostar: BMG Labtech). The percentage loss of cell viability was calculated for each well relative to vehicle (0.5% DMSO) treatment. Where appropriate, a CC50 value was calculated from the concentration-response curve generated from the concentration-response curve for each test compound.

RSV B Washington strain = experiment: RSV B-induced CPE in Hep2 cells; details: human respiratory syncytial virus; for IC50: HEp-2, 144 h, read-out: RSV B CPE IC50
Protocol: (§1) Biological Testing: Experimental Methods Assessment of RSV Induced CPE in Hep2 Cells
(§2) Hep2 cells were seeded (10^3/well/50 μL) in 384-well plates (Catalogue number 353962, BD Falcon, Oxford, UK) in 5% serum free-DMEM containing 2 mM L-glutamine and 1 mM sodium pyruvate one day before infection. RSV A2 strain (#0709161v, NCPV, Public Health England, Wiltshire) or RSV B Washington strain (VR-1580, ATCC, Manassas, Va. 20108) virus solutions were prepared in serum free-DMEM with 2 mM L-glutamine and 1 mM sodium pyruvate, and then added (50 μL/well) to achieve a final virus concentration of 1 MOI for RSV A and 0.1MOI for RSV B. Simultaneously test compounds (0.5 μL DMSO solution) were added to 100 μL of Hep2 cell culture with virus solution to provide a final DMSO solution of 0.5%. Plates were incubated (37° C./5% CO2) for 5 days for studies using RSV A2 strain or 6 days for those using RSV B strain, and then resazurin sodium salt (5 μL of 0.03% solution; Sigma-Aldrich, Dorset, UK) was added to each well and the plate incubated for a further 6 hr (37° C. and 5% CO2). The fluorescence of each well [545 nm (excitation)/590 nm (emission)] was determined using a multi-scanner (Clariostar: BMG, Buckinghamshire, UK). The percentage inhibition for each well was calculated and the IC50, IC75 and IC90 values were calculated from the concentration-response curve generated for each test compound.

RSV A2 strain = experiment: RSV A2-induced CPE in Hep2 cells; details: human respiratory syncytial virus; for IC50: HEp-2, 120 h, read-out: RSV A2 CPE IC50; for inhibition at 0.01 µg/mL: at 0.01 μg/mL (footnote 2)
Protocol: as §1, §2

[2] = Hep2 cells, RSV B Washington 0.1 MOI, 6 days, resazurin
[3] = HEp-2, Hep2 cells, at 1 μg/mL, read-out: RSV B CPE % Inhibition
[4] = Hep2 cells, RSV A2 1 MOI, 5 days, resazurin
[5] = HEp-2, Hep2 cells, read-out: RSV A2 CPE % Inhibition
[6] = HEp-2, Hep2 cells, at 0.1 μg/mL, read-out: RSV A2 CPE % Inhibition

SMILES	IC50 (RSV B Washington strain; [2])	IC50 (RSV A2 strain; [4])	CC50 at 5 days [1]	IC50 (RSV B Washington strain)	inhibition at 1 µg/mL (RSV B Washington strain; HEp-2, read-out: RSV B CPE % Inhibition)	IC50 (RSV A2 strain)	inhibition at 0.1 µg/mL (RSV A2 strain; HEp-2, read-out: RSV A2 CPE % Inhibition)	inhibition at 1 µg/mL (RSV B Washington strain; [3])	inhibition at 0.01 µg/mL (RSV A2 strain; [5])	inhibition at 0.1 µg/mL (RSV A2 strain; [6])
Cc1cccc2nc(-c3cc4c(s3)-c3ccccc3N(C(=O)c3ccc(NC(=O)c5cccnc5N5CC6(CCOCC6)C5)cc3)CC4)[nH]c12 [Example 1, N-(4-(2-(7-Methyl-1H-benzo[d]imidazol-2-yl)-5,6-dihydro-4H-benzo[b]thieno[2,3-d]azepine-6-carbonyl)phenyl)-2-(7-oxa-2-azaspiro[3.5]nonan-2-yl)nicotinamide]			> 14700 nM	84.7 nM	100%	0.21 nM	100%			
CCc1cnc(N2CC3(CCOCC3)C2)c(C(=O)Nc2ccc(C(=O)N3CCc4cc(-c5nc6ccccc6[nH]5)sc4-c4ccccc43)cc2)c1 [Example 4, N-(4-(2-(1H-Benzo[d]imidazol-2-yl)-5,6-dihydro-4H-benzo[b]thieno[2,3-d]azepine-6-carbonyl)phenyl)-5-ethyl-2-(7-oxa-2-azaspiro[3,5]nonan-2-yl)nicotinamide]	13.3 nM	0.66 nM	> 14400 nM					100%	86%	
Cc1cnc(N2CC3(CCOCC3)C2)c(C(=O)Nc2ccc(C(=O)N3CCc4cc(-c5nc6ccccc6[nH]5)sc4-c4ccccc43)cc2)c1 [Example 13, N-(4-(2-(1H-benzo[d]imidazol-2-yl)-5,6-dihydro-4H-benzo[b]thieno[2,3-d]azepine-6-carbonyl)phenyl)-5-methyl-2-(7-oxa-2-azaspiro[3.5]nonan-2-yl)nicotinamide]	0.99 nM	0.085 nM	> 14700 nM					100%		100%
Cc1cnc(N2CC3(CCOCC3)C2)c(C(=O)Nc2ccc(C(=O)N3CCc4cc(-c5nc6cccc(Cl)c6[nH]5)sc4-c4ccccc43)cc2)c1 [Example 15, N-(4-(2-(7-chloro-1H-benzo[d]imidazol-2-yl)-5,6-dihydro-4H-benzo[b]thieno[2,3-d]azepine-6-carbonyl)phenyl)-5-methyl-2-(7-oxa-2-azaspiro[3.5]nonan-2-yl)nicotinamide]	83.3 nM	0.17 nM	> 14000 nM					100%		85%
Cc1cnc(N2CC3(CCOCC3)C2)c(C(=O)Nc2ccc(C(=O)N3CCc4cc(-c5nc6cccc(C)c6[nH]5)sc4-c4ccccc43)cc2)c1 [Example 16, 5-methyl-N-(4-(2-(7-methyl-1H-benzo[d]imidazol-2-yl)-5,6-dihydro-4H-benzo[b]thieno[2,3-d]azepine-6-carbonyl)phenyl)-2-(7-oxa-2-azaspiro[3.5]nonan-2-yl)nicotinamide]	16 nM	0.11 nM	> 14400 nM					99%		100%
Cc1cnc(N2CC3(CCOCC3)C2)c(C(=O)Nc2ccc(C(=O)N3CCc4cc(-c5nc6cccc(C(F)(F)F)c6[nH]5)sc4-c4ccccc43)cc2)c1 [Example 17, 5-methyl-2-(7-oxa-2-azaspiro[3.5]nonan-2-yl)-N-(4-(2-(7-(trifluoromethyl)-1H-benzo[d]imidazol-2-yl)-5,6-dihydro-4H-benzo[b]thieno[2,3-d]azepine-6-carbonyl)phenyl)nicotinamide]	13.2 nM	0.11 nM	> 13400 nM					100%		100%
Cc1cnc(N2CC3(CCOCC3)C2)c(C(=O)Nc2ccc(C(=O)N3CCc4cc(-c5nc6cccc(C#N)c6[nH]5)sc4-c4ccccc43)cc2)c1 [Example 18, N-(4-(2-(7-cyano-1H-benzo[d]imidazol-2-yl)-5,6-dihydro-4H-benzo[b]thieno[2,3-d]azepine-6-carbonyl)phenyl)-5-methyl-2-(7-oxa-2-azaspiro[3.5]nonan-2-yl)nicotinamide]	7.4 nM	0.28 nM	> 14200 nM					100%		100%
Cc1cnc(N2CC3(CCOCC3)C2)c(C(=O)Nc2ccc(C(=O)N3CCc4cc(-c5nc6cc(F)cc(F)c6[nH]5)sc4-c4ccccc43)cc2)c1 [Example 19, N-(4-(2-(5,7-difluoro-1H-benzo[d]imidazol-2-yl)-5,6-dihydro-4H-benzo[b]thieno[2,3-d]azepine-6-carbonyl)phenyl)-5-methyl-2-(7-oxa-2-azaspiro[3.5]nonan-2-yl)nicotinamide]	6.3 nM	0.96 nM	> 14000 nM					100%	88%	
COc1ccc(C(=O)Nc2ccc(C(=O)N3CCc4cc(-c5nc6ccccc6[nH]5)sc4-c4ccccc43)cc2)c(N2CC3(CCOCC3)C2)n1 [Example 21, N-(4-(2-(1H-benzo[d]imidazol-2-yl)-5,6-dihydro-4H-benzo[b]thieno[2,3-d]azepine-6-carbonyl)phenyl)-6-methoxy-2-(7-oxa-2-azaspiro[3.5]nonan-2-yl)nicotinamide]	45.2 nM	0.21 nM	> 14400 nM					100%		100%

Second part, led by results:

IC50 (RSV B Washington strain; [2])	IC50 (RSV A2 strain; [4])	SMILES	CC50 at 5 days [1]	IC50 (RSV B Washington strain)	inhibition at 1 µg/mL (RSV B Washington strain; HEp-2, read-out: RSV B CPE % Inhibition)	IC50 (RSV A2 strain)	inhibition at 0.1 µg/mL (RSV A2 strain; HEp-2, read-out: RSV A2 CPE % Inhibition)	inhibition at 1 µg/mL (RSV B Washington strain; [3])	inhibition at 0.01 µg/mL (RSV A2 strain; [5])	inhibition at 0.1 µg/mL (RSV A2 strain; [6])
26.8 nM	0.18 nM	O=C(Nc1ccc(C(=O)N2CCc3cc(-c4nc5cccc(F)c5[nH]4)sc3-c3ccccc32)cc1)c1cccnc1N1CC2(CCOCC2)C1 [Example 8, N-(4-(2-(7-fluoro-1H-benzo[d]imidazol-2-yl)-5,6-dihydro-4H-benzo[b]thieno[2,3-d]azepine-6-carbonyl)phenyl)-2-(7-oxa-2-azaspiro[3.5]nonan-2-yl)nicotinamide]	> 14600 nM					100%		100%
44.1 nM	0.67 nM	O=C(Nc1ccc(C(=O)N2CCc3cc(-c4nc5cccc(Cl)c5[nH]4)sc3-c3ccccc32)cc1)c1cccnc1N1CC2(CCOCC2)C1 [Example 9, N-(4-(2-(7-chloro-1H-benzo[d]imidazol-2-yl)-5,6-dihydro-4H-benzo[b]thieno[2,3-d]azepine-6-carbonyl)phenyl)-2-(7-oxa-2-azaspiro[3.5]nonan-2-yl)nicotinamide]	> 14300 nM					100%		100%
62 nM	0.14 nM	O=C(Nc1ccc(C(=O)N2CCc3cc(-c4nc5cccc(C(F)(F)F)c5[nH]4)sc3-c3ccccc32)cc1)c1cccnc1N1CC2(CCOCC2)C1 [Example 10, 2-(7-oxa-2-azaspiro[3.5]nonan-2-yl)-N-(4-(2-(7-(trifluoromethyl)-1H-benzo[d]imidazol-2-yl)-5,6-dihydro-4H-benzo[b]thieno[2,3-d]azepine-6-carbonyl)phenyl)nicotinamide]	> 13600 nM					100%		100%
45.7 nM	0.28 nM	Cc1ccc2nc(-c3cc4c(s3)-c3ccccc3N(C(=O)c3ccc(NC(=O)c5cccnc5N5CC6(CCOCC6)C5)cc3)CC4)[nH]c2c1 [Example 11, N-(4-(2-(6-methyl-1H-benzo[d]imidazol-2-yl)-5,6-dihydro-4H-benzo[b]thieno[2,3-d]azepine-6-carbonyl)phenyl)-2-(7-oxa-2-azaspiro[3.5]nonan-2-yl)nicotinamide]	> 14700 nM					100%		100%
7.6 nM	0.094 nM	Cc1ccc(C(=O)Nc2ccc(C(=O)N3CCc4cc(-c5nc6cccc(F)c6[nH]5)sc4-c4ccccc43)cc2)c(N2CC3(CCOCC3)C2)n1 [Example 20, N-(4-(2-(7-fluoro-1H-benzo[d]imidazol-2-yl)-5,6-dihydro-4H-benzo[b]thieno[2,3-d]azepine-6-carbonyl)phenyl)-6-methyl-2-(7-oxa-2-azaspiro[3.5]nonan-2-yl)nicotinamide]	> 14300 nM					100%		100%
